Laboratory results reported in patent US12522594B2, “2-heteroaryl-3-oxo-2,3-dihydropyridazine-4-carboxamides for the treatment of cancer” (Deutsches Krebsforschungszentrum, priority 2017, dated 2026).

Experiments:
Format in all cases: cell-based
AHR [1] = target: T1, AHR (Homo sapiens, UniProt P35869); assay: In vitro assay 3: AHR-regulated CYP1A1 expression in human cell line (U937, qPCR, KA stimulation); conditions: U937 cells, 200 uM KA, 6 hours, CYP1A1 expression by qPCR; read-out: Assay 3: Hum CYP1A1 Antagonism IC50
T1 sequence (P35869 11-848): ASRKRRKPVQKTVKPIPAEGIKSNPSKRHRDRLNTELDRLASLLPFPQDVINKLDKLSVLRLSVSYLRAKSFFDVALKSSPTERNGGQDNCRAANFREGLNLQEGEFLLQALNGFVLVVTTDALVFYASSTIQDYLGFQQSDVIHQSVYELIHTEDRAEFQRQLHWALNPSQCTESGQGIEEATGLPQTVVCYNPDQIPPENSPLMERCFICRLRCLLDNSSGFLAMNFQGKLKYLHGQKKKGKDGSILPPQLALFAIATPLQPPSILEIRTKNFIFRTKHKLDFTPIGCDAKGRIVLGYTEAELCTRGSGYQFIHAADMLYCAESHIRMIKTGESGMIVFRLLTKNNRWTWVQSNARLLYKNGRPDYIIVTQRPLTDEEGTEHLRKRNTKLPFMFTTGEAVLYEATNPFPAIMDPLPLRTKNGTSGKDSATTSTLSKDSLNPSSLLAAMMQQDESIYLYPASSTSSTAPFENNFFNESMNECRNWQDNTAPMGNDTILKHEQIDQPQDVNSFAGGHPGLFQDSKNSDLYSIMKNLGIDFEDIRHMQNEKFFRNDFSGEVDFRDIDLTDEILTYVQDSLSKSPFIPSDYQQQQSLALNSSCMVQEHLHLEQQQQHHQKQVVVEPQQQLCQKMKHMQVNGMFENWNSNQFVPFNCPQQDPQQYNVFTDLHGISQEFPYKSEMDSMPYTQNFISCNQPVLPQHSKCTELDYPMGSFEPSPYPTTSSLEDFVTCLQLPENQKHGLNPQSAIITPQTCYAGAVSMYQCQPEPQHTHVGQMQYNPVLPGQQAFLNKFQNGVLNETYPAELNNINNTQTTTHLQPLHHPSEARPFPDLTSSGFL
Procedure: In Vitro Assay 3: AHR-Regulated CYP1A1 Expression in Human Cell Line
To assess the AHR inhibitory activity of the substances described in this application, the ability thereof to antagonise ligand-induced AHR gene regulation in a dose-dependent manner was quantified. For this purpose, quantitative PCR analysis was used to determine expression of the AHR-regulated gene CYP1A1 in a human monocytic U937 cell line upon stimulation with 200 uM KA in the presence and absence of AHR inhibitor. […] CYP1A1 expression was induced with 200 uM KA (positive control) in the presence or absence of the substances for 6 hours. Human U937 cells were typically incubated with eight different concentrations of the substances (1 nM, 3 nM, 10 nM, 30 nM, 100 nM, 300 nM, 1 uM and 3 uM) and analyzed in duplicate on the same microtitre plate. […] Unstimulated cells were used as the negative control. Taqman probes for human CYP1A1 (Hs01054797_g1) and human HPRT (Hs02800695_m1) were used to analyze fold expression of CYP1A1 of HPRT. Quantitation was performed on a Taqman SDS7900HT.

AHR [2] = target: T1, AHR; assay: In vitro assay 2: agonism in human cell line (transactivation assay, U87 cells, DRE firefly luciferase reporter); parameters: host or cells: U87 glioblastoma cells, stably transfected with DRE firefly luciferase and renilla reporter constructs; conditions: no kynurenic acid, 20 hours, read-out: Assay 2: AHR-luc Hum Agonism IC50
How it was run: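 U87 glioblastoma cells with endogenous AHR, stably carrying DRE-driven firefly luciferase and constitutive renilla reporters. 300 uM kynurenic acid served as positive activation control; data normalized to positive and negative controls.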

AHR [3] = target: T1, AHR; assay: In vitro assay 1: antagonism in human cell line (transactivation assay, U87 cells prestimulated with kynurenic acid, DRE firefly luciferase reporter); parameters: host or cells: U87 glioblastoma cells, stably transfected with DRE firefly luciferase and renilla reporter constructs; conditions: 150 uM kynurenic acid, 20 hours, read-out: Assay 1: AHR-luc Hum Antagonism IC50
How it was run: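 U87 glioblastoma cells with endogenous AHR, stably carrying a DRE-driven firefly luciferase reporter and a constitutive renilla reporter. Cells prestimulated with the AHR agonist kynurenic acid before compound addition; data normalized to positive and negative controls.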

Row | SMILES | IC50 (AHR [1]) [nM] | IC50 (AHR [2]) [nM] | IC50 (AHR [3]) [nM]
1 | O=C(N[C@H]1COC[C@H]1O)c1cc(-c2ccc(OC(F)(F)F)cc2)nn(-c2cccnc2)c1=O (single isomer, unassigned; enantiomer 2) [Example 159, N-[(cis)-4-Hydroxytetrahydrofuran-3-yl]-3-oxo-2-(pyridin-3-yl)-6-[4-(trifluoromethoxy)phenyl]-2,3-dihydropyridazine-4-carboxamide, Enantiomer 2] | 97.9 | > 20000 | 57
2 | Cc1ccc(-c2cc(C(=O)NCC(O)C(F)F)c(=O)n(-c3cnn(C)c3)n2)cc1 (single isomer, unassigned; enantiomer 1) [Example 14, N-(3,3-Difluoro-2-hydroxypropyl)-6-(4-methylphenyl)-2-(1-methyl-1H-pyrazol-4-yl)-3-oxo-2,3-dihydropyridazine-4-carboxamide, Enantiomer 1] | 25.5 | > 20000 | 12.1
3 | O=C(N[C@H]1COC[C@H]1O)c1cc(-c2ccc(Cl)cc2)nn(-c2cccnc2)c1=O (single isomer, unassigned) [Example 172, 6-(4-chlorophenyl)-N-[(cis)-4-hydroxytetrahydrofuran-3-yl]-3-oxo-2-(pyridin-3-yl)-2,3-dihydropyridazine-4-carboxamide] | 23.4 | > 20000 | 29.5
4 | O=C(N[C@H](CO)C(F)(F)F)c1cc(-c2ccc(OC(F)(F)F)cc2)nn(-c2cccnc2)c1=O [Example 134, 3-Oxo-2-(pyridin-3-yl)-N-[(2R)-1,1,1-trifluoro-3-hydroxypropan-2-yl]-6-[4-(trifluoromethoxy)phenyl]-2,3-dihydropyridazine-4-carboxamide] | 9.89 | > 20000 | 7.68
5 | CC(C)(O)CNC(=O)c1cc(-c2ccc(Cl)cc2)nn(-c2cccnc2)c1=O [Example 71, 6-(4-Chlorophenyl)-N-(2-hydroxy-2-methylpropyl)-3-oxo-2-(pyridin-3-yl)-2,3-dihydropyridazine-4-carboxamide] | 60.7 | > 20000 | 38
6 | C[C@@H](CO)NC(=O)c1cc(-c2ccc(C(F)F)cc2)nn(-c2cccnc2)c1=O [Example 151, 6-[4-(Difluoromethyl)phenyl]-N-[(2S)-1-hydroxypropan-2-yl]-3-oxo-2-(pyridin-3-yl)-2,3-dihydropyridazine-4-carboxamide] | – | > 20000 | 21.1
7 | Cn1cc(-n2nc(-c3ccc(OC(F)(F)F)cc3)cc(C(=O)N[C@@H]3COC[C@@H]3O)c2=O)cn1 (single isomer, unassigned; enantiomer 2) [Example 57, N-[(cis)-4-Hydroxytetrahydrofuran-3-yl]-2-(1-methyl-1H-pyrazol-4-yl)-3-oxo-6-[4-(trifluoromethoxy)phenyl]-2,3-dihydropyridazine-4-carboxamide, Enantiomer 2] | – | > 20000 | 7.48
8 | Cn1cc(-n2nc(-c3ccc(OC(F)(F)F)cc3)cc(C(=O)N[C@@H]3COC[C@H]3O)c2=O)cn1 (racemic) [Example 63, N-[(trans)-4-Hydroxytetrahydrofuran-3-yl]-2-(1-methyl-1H-pyrazol-4-yl)-3-oxo-6-[4-(trifluoromethoxy)phenyl]-2,3-dihydropyridazine-4-carboxamide] | – | > 20000 | 81
9 | O=C(NC(CO)C1CC1)c1cc(-c2ccc(C(F)(F)F)cc2)nn(-c2cccnc2)c1=O (racemic) [Example 109, N-[(1RS)-1-Cyclopropyl-2-hydroxyethyl]-3-oxo-2-(pyridin-3-yl)-6-[4-(trifluoromethyl)phenyl]-2,3-dihydropyridazine-4-carboxamide] | – | > 20000 | 1.63
10 | Cn1cc(-n2nc(-c3ccc(Cl)cc3)cc(C(=O)N[C@H]3CCCC[C@H]3O)c2=O)cn1 [Example 48, 6-(4-Chlorophenyl)-N-[(1S,2R)-2-hydroxycyclohexyl]-2-(1-methyl-1H-pyrazol-4-yl)-3-oxo-2,3-dihydropyridazine-4-carboxamide] | – | > 20000 | 2.49
11 | O=C(N[C@H]1CCC[C@H]1O)c1cc(-c2ccc(Cl)cc2)nn(-c2ccnnc2)c1=O [Example 167, 3-(4-Chlorophenyl)-N-[(1S,2R)-2-hydroxycyclopentyl]-6-oxo-6H-1,4′-bipyridazine-5-carboxamide] | – | > 20000 | 239
12 | O=C(N[C@H]1CCCC[C@H]1O)c1cc(-c2ccc(Cl)cc2)nn(-c2ccnnc2)c1=O [Example 164, 3-(4-Chlorophenyl)-N-[(1S,2R)-2-hydroxycyclohexyl]-6-oxo-6H-1,4′-bipyridazine-5-carboxamide] | – | > 20000 | 157

The next lines start with the values.

Row | IC50 (AHR [1]) [nM] | IC50 (AHR [2]) [nM] | IC50 (AHR [3]) [nM] | SMILES
13 | 2.02 | > 20000 | 1.46 | Cn1cc(-n2nc(-c3ccc(C(F)(F)F)cc3)cc(C(=O)N[C@H]3CCC[C@@H]3O)c2=O)cn1 [Example 210, N-[(1S,2S)-2-Hydroxycyclopentyl]-2-(1-methyl-1H-pyrazol-4-yl)-3-oxo-6-[4-(trifluoromethyl)phenyl]-2,3-dihydropyridazine-4-carboxamide]
14 | 7.38 | > 20000 | 8.16 | O=C(NC[C@H](O)C(F)(F)F)c1cc(-c2ccc(Cl)cc2)nn(-c2csc(Cl)c2)c1=O [Example 232, 6-(4-Chlorophenyl)-2-(5-chloro-3-thienyl)-3-oxo-N-[(2S)-3,3,3-trifluoro-2-hydroxypropyl]-2,3-dihydropyridazine-4-carboxamide]
15 | – | > 20000 | 2.21 | Cn1cc(-n2nc(-c3ccc(C(F)(F)F)cc3)cc(C(=O)N[C@@H]3COC[C@@H]3O)c2=O)cn1 (relative stereo) [Example 215, N-cis-4- Hydroxytetrahyd rofuran-3-yl-2-(1-methyl-1H-pyrazol-4-yl)-3-oxo-6-[4-(trifluoromethyl)phenyl]-2,3-dihydropyridazine-4-carboxamide]
16 | – | > 20000 | 140 | CC(C)(O)CNC(=O)c1cc(-c2ccc(Cl)cc2)nn(-c2cnn(C(F)F)c2)c1=O [Example 278, 6-(4-Chlorophenyl)-2-[1-(difluoromethyl)-1H-pyrazol-4-yl]-N-(2-hydroxy-2-methylpropyl)-3-oxo-2,3-dihydropyridazine-4-carboxamide]
17 | – | > 20000 | 4.37 | O=C(N[C@@H]1CC[C@@H]1O)c1cc(-c2ccc(C(F)(F)F)cc2)nn(-c2cccnc2)c1=O (relative stereo) [Example 224, N-cis-2- Hydroxycyclobutyl-3-oxo-2-(pyridin-3-yl)-6-[4-(trifluoromethyl)phenyl]-2,3-dihydropyridazine-4-carboxamide]
18 | – | > 20000 | 26 | O=C(NC[C@H](O)C(F)(F)F)c1cc(-c2ccc(Cl)cc2)nn(-c2cnn(C(F)F)c2)c1=O [Example 256, 6-(4-Chlorophenyl)-2-[1-(difluoromethyl)-1H-pyrazol-4-yl]-3-oxo-N-[(2S)-3,3,3-trifluoro-2-hydroxypropyl]-2,3-dihydropyridazine-4-carboxamide]
19 | – | > 20000 | 171 | O=C(N[C@H]1COCC[C@H]1O)c1cc(-c2ccc(C(F)(F)F)nc2)nn(-c2cncc(F)c2)c1=O [Example 343, 1,5-Anhydro-2,4-dideoxy-2-[({2-(5-fluoropyridin-3-yl)-3-oxo-6-[6-(trifluoromethyl)pyridin-3-yl]-2,3-dihydropyridazine-4-yl}carbonyl)amino]-D-erythro-pentitol]
